Holding throughout (assay type): biochemical
The target in one test is CDK4/cyclinD1 (Homo sapiens, UniProt P11802). Nature of the test: In vitro filtration assay for CDK4 inhibitory activity (pRb phosphorylation, [33P]-ATP). Conditions: GST-pRb substrate, 1 μM unlabeled ATP, 25° C. 45 minutes, read-out: cdk4 filter (pIC50) (converted). On the procedure:
Compounds of the present invention were tested in an in vitro filtration assay assessing CDK4 activity by means of its pRb-phosphorylation activity using [^33P]-ATP as phosphor donor. The radioactive phosphorylated pRb is then captured on filtermats and the incorporated [^33P] quantitated using a phosphorage storage screen.
The CDK4 kinase reaction is performed at 25° C. for 45 minutes in a 96-well microtiterplate. The 25 μl reaction volume contains 50 mM Hepes pH 7.5, 10 mM NaF, 10 mM MgCl2, 1 mM Na3VO4, 1 μM unlabeled ATP, 1 mM DTT, 0.5 μCi AT^33P, 0.76 μg/well GST-pRb, 50 ng CDK4/cyclinD1/well and 0.2% compound in 100% DMSO.
(§1) The reaction is stopped by adding 5 μl of a 3% phosphoric acid solution. 10 μl of the reaction mixture is then spotted onto a Filtermat P30 filter (Wallac) and washed 3 times for 5 min. in 75 mM phosphoric acid and 1 time for 5 min. in methanol prior to drying and quantification on the Typhoon (Amersham) using a phosphorage storage screen.
(§2) For each experiment, controls (containing enzyme (complex) and DMSO without compound), a blank incubation (containing DMSO but no enzyme (complex) or compound) and samples (containing enzyme (complex) and compound dissolved in DMSO) were run in parallel. All compounds tested were dissolved and eventually further diluted in DMSO. […] In each test, the blank value was subtracted from both the control and the sample values. The control sample represented maximal enzyme activity. For each sample, the amount of cpm was expressed as a percentage of the mean cpm value of the controls. When appropriate, IC50-values (concentration of the drug, needed to reduce the enzyme activity to 50% of the control) were computed using linear interpolation between the experimental points just above and below the 50% level. Herein the effects of test compounds are expressed as pIC50 (the negative log value of the IC50-value).

Another test has as its target T1, AURORA A (Homo sapiens, UniProt O14965).
T1 sequence (O14965 1-403): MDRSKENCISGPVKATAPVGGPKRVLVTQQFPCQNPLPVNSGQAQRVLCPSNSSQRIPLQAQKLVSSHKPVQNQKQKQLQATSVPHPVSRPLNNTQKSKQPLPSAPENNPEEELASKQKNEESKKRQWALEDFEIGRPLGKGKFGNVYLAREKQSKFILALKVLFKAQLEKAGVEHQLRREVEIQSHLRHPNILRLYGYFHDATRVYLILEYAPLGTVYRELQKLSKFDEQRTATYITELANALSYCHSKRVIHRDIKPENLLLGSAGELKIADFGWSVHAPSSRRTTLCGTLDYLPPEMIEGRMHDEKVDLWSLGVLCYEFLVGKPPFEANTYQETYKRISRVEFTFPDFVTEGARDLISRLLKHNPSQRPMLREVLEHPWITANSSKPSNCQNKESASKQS
Put plainly: In vitro filtration assay for AURORA A inhibitory activity. Conditions: Kemptide substrate, 1 μM unlabeled ATP, 25° C. 40 minutes, read-out: Aurora A see C.2 (pIC50) (converted). On the procedure: Compounds of the present invention were tested in an in vitro filtration assay assessing AURORA A activity by means of its substrate-phosphorylation activity using [^33P]-ATP as phosphor donor. The radioactive phosphorylated substrate is then captured on filtermats and the incorporated [^33P] quantitated using a phosphorage storage screen.
The Aurora-A kinase reaction is performed at 25° C. for 40 minutes in a 96-well microtiterplate. The 25 μl reaction volume contains 12 mM MOPS pH 7, 0.4 mM EDTA, 0.002% Brij35, 1% glycerol, 0.02% beta-mercapto-ethanol, 0.2 mg/ml BSA, 1 μM unlabeled ATP, […] [^33P]-ATP, 200 μM Kemptide, 3 ng Aurora A/well and 0.2% compound in 100% DMSO.
as §1, §2

The next test has as its target AURORA B (Homo sapiens, UniProt Q96GD4). Put plainly: In vitro filtration assay for AURORA B inhibitory activity. The following applies: peptide (C(LRRWSLG)×4), 1 μM unlabeled ATP, 25° C. 40 minutes, read-out: Aurora B see C.3 (pIC50) (converted). The procedure: Compounds of the present invention were tested in an in vitro filtration assay assessing AURORA B activity by means of its substrate-phosphorylation activity using [^33P]-ATP as phosphor donor. The radioactive phosphorylated substrate is then captured on filtermats and the incorporated [^33P] quantitated using a phosphorage storage screen.
The Aurora-B kinase reaction is performed at 25° C. for 40 minutes in a 96-well microtiterplate. The 25 μl reaction volume contains 60 mM Hepes pH 7.5, 3 mM MgCl2, 3 mM MnCl2, 3 μM Na3VO4, 50 μg/ml PEG20000, 1 μM unlabeled ATP, 1 mM DTT, 0.2 μCi AT^33P, 0.25 μg/well peptide (C(LRRWSLG)×4),100 ng Aurora-B/well and 0.2% compound in 100% DMSO. The reaction is stopped by adding 5 μl of a 3% phosphoric acid solution. 10 μl of the reaction mixture is then spotted onto a Filtermat P30 filter (Wallac) and washed 3 times for 5 min. in 75 mM phosphoric acid and 1 time for 5 min. in methanol prior to drying and quantification on the Typhoon (Amersham) using a phosphorage storage screen.
as §2

A value given as a limit tells only on which side of the number the result lay.

Chain of CDK4/cyclinD1 (P11802 whole entry): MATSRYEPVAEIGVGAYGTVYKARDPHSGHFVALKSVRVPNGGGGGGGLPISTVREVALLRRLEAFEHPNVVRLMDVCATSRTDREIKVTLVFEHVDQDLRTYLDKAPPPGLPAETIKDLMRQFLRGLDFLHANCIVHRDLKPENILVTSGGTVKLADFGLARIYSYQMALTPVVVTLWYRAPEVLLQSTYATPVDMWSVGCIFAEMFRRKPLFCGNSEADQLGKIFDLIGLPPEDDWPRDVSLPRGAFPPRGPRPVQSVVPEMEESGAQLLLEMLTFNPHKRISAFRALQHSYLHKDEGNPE
Chain of CDK4/cyclinD1 (P24385 whole entry partner): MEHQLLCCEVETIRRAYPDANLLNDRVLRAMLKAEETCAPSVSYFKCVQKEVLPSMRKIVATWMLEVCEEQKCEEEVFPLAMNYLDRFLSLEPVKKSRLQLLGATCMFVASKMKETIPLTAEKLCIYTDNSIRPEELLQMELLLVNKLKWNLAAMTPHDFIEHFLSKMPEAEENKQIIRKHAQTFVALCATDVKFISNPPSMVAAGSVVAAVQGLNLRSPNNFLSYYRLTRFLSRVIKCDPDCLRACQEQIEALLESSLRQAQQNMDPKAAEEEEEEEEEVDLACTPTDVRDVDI
Chain of AURORA B (Q96GD4 whole entry): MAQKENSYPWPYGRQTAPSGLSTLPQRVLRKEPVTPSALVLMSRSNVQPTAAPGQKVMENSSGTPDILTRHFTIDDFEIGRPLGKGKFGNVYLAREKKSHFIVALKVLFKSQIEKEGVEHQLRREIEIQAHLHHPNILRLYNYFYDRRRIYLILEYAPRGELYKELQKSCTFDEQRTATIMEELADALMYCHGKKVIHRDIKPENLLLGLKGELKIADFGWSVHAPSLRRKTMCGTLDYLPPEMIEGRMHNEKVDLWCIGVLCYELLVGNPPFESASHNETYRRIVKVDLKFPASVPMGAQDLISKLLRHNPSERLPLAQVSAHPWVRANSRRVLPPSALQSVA

As to `CN1CCN(c2ccc(Nc3ncc4cnn([C@H]5C[C@@H]6CC[C@H]5C6)c4n3)cc2)CC1` (single isomer, unassigned) [Co. No. 23], the IC50 at CDK4/cyclinD1 was 0.00501 µM; at AURORA A, 0.1 µM; on AURORA B it was 0.158 µM.
The matching figures for `CN1CCN(Cc2ccc(Nc3ncc4cnn(C5CCCCC5)c4n3)cc2)CC1` [Co. No. 2]: 0.00316 µM, 0.501 µM and over 10 µM.
The matching figures for `CN1CCN(C(=O)c2ccc(Nc3ncc4cnn(C5CCCCC5)c4n3)cc2)CC1` [Co. No. 3]: 0.00631 µM, 0.501 µM and over 10 µM.
The corresponding values for `c1cc(Nc2ncc3cnn(C4CCCCC4)c3n2)ccc1CNCCN1CCOCC1` [Co. No. 4] are 0.00251 µM, 1 µM and over 1.58 µM.
Regarding `OCCN1CCN(c2ccc(Nc3ncc4cnn(C5CCCCC5)c4n3)cc2)CC1` [Co. No. 15], the IC50 was 0.01 µM at CDK4/cyclinD1, 0.631 µM on AURORA A and over 10 µM on AURORA B.
The matching figures for `OCCN1CCN(Cc2ccc(Nc3ncc4cnn(C5CCCCC5)c4n3)cc2)CC1` [Co. No. 37]: 0.00794 µM, 0.2 µM and 0.398 µM.
Regarding `CN1CCC(NCc2ccc(Nc3ncc4cnn(C5CCCCC5)c4n3)cc2)CC1` [Co. No. 60], the IC50 at CDK4/cyclinD1 was 0.00794 µM; on AURORA A it was 1.58 µM; on AURORA B, over 10 µM.
The corresponding values for `CN1CCN(c2ccc(Nc3ncc4cnn([C@H]5C[C@@H]6CC[C@H]5C6)c4n3)cc2)CC1` [compound 16] are 0.0316 µM, 0.398 µM and over 10 µM.
Turning to `c1cc(N2CCOCC2)ncc1Nc1ncc2cnn(C3CCCCC3)c2n1` [compound 17], the IC50 at CDK4/cyclinD1 was 0.02 µM; on AURORA A it was 0.794 µM; at AURORA B, over 10 µM.
For the compound `CN1CCN(c2ccc(Nc3ncc4cnn(C5CCCCC5)c4n3)cc2Cl)CC1` [compound 18], the IC50 at CDK4/cyclinD1 was 0.251 µM; on AURORA A it was 0.158 µM; on AURORA B it was over 10 µM.
The matching figures for `CC(=O)N1CCN(c2ccc(Nc3ncc4cnn(C5CCCCC5)c4n3)cc2)CC1` [compound 19]: 5.01 µM, over 10 µM and over 10 µM.
In the case of `OC1CCN(c2ccc(Nc3ncc4cnn(C5CCCCC5)c4n3)cc2)CC1` [compound 20], the IC50 at CDK4/cyclinD1 is 0.0126 µM; on AURORA A, 0.501 µM; at AURORA B, over 10 µM.
For the compound `NS(=O)(=O)N1CCN(c2ccc(Nc3ncc4cnn(C5CCCCC5)c4n3)cc2)CC1` [compound 21], the IC50 was 0.0398 µM on CDK4/cyclinD1, 0.2 µM at AURORA A and 3.16 µM on AURORA B.
The matching figures for `c1ccc(N2CCN(c3ccc(Nc4ncc5cnn(C6CCCCC6)c5n4)cc3)CC2)nc1` [compound 22]: 0.501 µM, 0.0398 µM and over 10 µM.
Take `CC(C)(O)CN1CCN(c2ccc(Nc3ncc4cnn(C5CCCCC5)c4n3)cc2)CC1` [compound 24]: the IC50 is 0.126 µM on CDK4/cyclinD1, 0.251 µM at AURORA A and 3.16 µM at AURORA B.
The matching figures for `CC(C)(C)OC(=O)N1CCN(c2ccc(Nc3ncc4cnn(C5CCCCC5)c4n3)cc2)CC1` [compound 25]: 1 µM, 0.1 µM and 3.16 µM.
`c1cc(N2CCNCC2)ccc1Nc1ncc2cnn(C3CCCCC3)c2n1` [compound 26]: the IC50 on CDK4/cyclinD1 is 0.0158 µM; on AURORA A it was 0.251 µM; at AURORA B, 1.26 µM.
For the compound `CN1CCN(c2ccc(Nc3ncc4cnn(C5CCOCC5)c4n3)cc2)CC1` [compound 27], the figures for the IC50 on CDK4/cyclinD1, at AURORA A and on AURORA B were 0.2 µM, 0.501 µM and over 10 µM, respectively.
The corresponding values for `c1cc(Nc2ncc3cnn(C4CCCCC4)c3n2)ncc1N1CCOCC1` [compound 28] are 1 µM, 2.51 µM and over 10 µM.
Take `CC(C)(C)OC(=O)N1CCN(c2ccc(Nc3ncc4cnn(C5CCCCC5)c4n3)nc2)CC1` [compound 29]: the IC50 was 6.31 µM at CDK4/cyclinD1, over 10 µM at AURORA A and over 10 µM on AURORA B.
On to `c1cc(Nc2ncc3cnn(C4CCCCC4)c3n2)ncc1N1CCNCC1` [compound 30], for which the IC50 at CDK4/cyclinD1 is 0.0501 µM; on AURORA A, over 10 µM; on AURORA B it was over 10 µM.
In the case of `CC(C)(O)C(=O)N1CCN(c2ccc(Nc3ncc4cnn(C5CCCCC5)c4n3)cc2)CC1` [compound 31], the IC50 on CDK4/cyclinD1 was 0.0316 µM.
As to `c1cc(Nc2ncc3cnn(C4CCCCC4)c3n2)ccc1CN1CCOCC1` [compound 33], the IC50 is 0.631 µM on CDK4/cyclinD1, 0.0158 µM on AURORA A and 7.94 µM at AURORA B.
With `NS(=O)(=O)N1CCN(Cc2ccc(Nc3ncc4cnn(C5CCCCC5)c4n3)cc2)CC1` [compound 34], the IC50 at CDK4/cyclinD1 is 0.0631 µM; at AURORA A it was 0.158 µM; at AURORA B, over 10 µM.
For the compound `c1ccc(N2CCN(Cc3ccc(Nc4ncc5cnn(C6CCCCC6)c5n4)cc3)CC2)nc1` [compound 35], the values for the IC50 at CDK4/cyclinD1, on AURORA A and on AURORA B were 0.1 µM, 0.251 µM and over 10 µM, respectively.
The matching figures for `CN1CCN(Cc2ccc(Nc3ncc4cnn([C@H]5C[C@@H]6CC[C@H]5C6)c4n3)cc2)CC1` [compound 36]: 0.1 µM, 0.251 µM and over 10 µM.
Consider `CC(C)(O)CN1CCN(Cc2ccc(Nc3ncc4cnn(C5CCCCC5)c4n3)cc2)CC1` [compound 38], for which the results for the IC50 at CDK4/cyclinD1, on AURORA A and on AURORA B were 0.0126 µM, 1 µM and 2 µM, respectively.
For `COCCCC(=O)N1CCN(Cc2ccc(Nc3ncc4cnn(C5CCCCC5)c4n3)cc2)CC1` [compound 45], the IC50 on CDK4/cyclinD1 was 0.398 µM; on AURORA A it was 0.2 µM.
The matching figures for `CN1CCN(Cc2ccc(Nc3ncc4cnn(C5CCOCC5)c4n3)cc2)CC1` [compound 49]: 1.26 µM and 1.26 µM.
For the compound `CC(C)(C)OC(=O)N(c1ccc(CNC2CCOCC2)cc1)c1ncc2cnn(C3CCCCC3)c2n1` [compound 66], the IC50 was 7.94 µM on CDK4/cyclinD1 and over 10 µM at AURORA B.
On to `COCCCN1CCN(c2ccc(Nc3ncc4c(n3)N(C3CCCCC3)C(=O)C4)cc2)CC1` [compound 90], for which the IC50 at CDK4/cyclinD1 was 0.316 µM; at AURORA A, 1.58 µM.
Consider `CC(C)(O)CN1CCC(NC(=O)c2ccc(Nc3ncc4cnn(C5CCCCC5)c4n3)cc2)CC1` [compound 98], for which the IC50 was 0.398 µM at CDK4/cyclinD1 and 0.316 µM at AURORA A.

Values taken from patent US7947695B2, “5-membered annelated heterocyclic pyrimidines as kinase inhibitors” (Janssen Pharmaceutica NV, priority 2005, dated 2011).
